Assay [1] concerns the target T1, cytoplasmic domain of the human CSF-1R (Homo sapiens, UniProt P07333).
T1 construct: Recombinant protein corresponding to the cytoplasmic domain of the human CSF-1R; purchased Invitrogen Corporation, Carlsbad, Calif; PV3249
T1 sequence (P07333 539-972 limits assumed): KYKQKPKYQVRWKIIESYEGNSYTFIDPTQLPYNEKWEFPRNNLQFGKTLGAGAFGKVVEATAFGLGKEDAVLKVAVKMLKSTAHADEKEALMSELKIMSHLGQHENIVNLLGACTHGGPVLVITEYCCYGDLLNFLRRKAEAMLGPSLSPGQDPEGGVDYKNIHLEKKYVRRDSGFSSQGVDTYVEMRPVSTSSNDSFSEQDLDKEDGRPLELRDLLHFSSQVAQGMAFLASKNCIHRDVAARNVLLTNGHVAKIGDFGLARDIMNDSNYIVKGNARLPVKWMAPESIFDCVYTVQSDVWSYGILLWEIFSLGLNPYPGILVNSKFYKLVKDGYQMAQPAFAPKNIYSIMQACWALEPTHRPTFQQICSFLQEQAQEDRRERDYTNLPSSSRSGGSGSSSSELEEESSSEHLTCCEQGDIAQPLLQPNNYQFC
Kind of assay: In vitro kinase assay for CSF-1R (AlphaScreen). The class given is biochemical. To be noted: tested at about 1 μM; read-out: CSF1RK 1 percent inhibition. The procedure:
The kinase activity of various protein tyrosine kinases can be measured by providing ATP and a suitable peptide or protein tyrosine-containing substrate, and assaying the transfer of phosphate moiety to the tyrosine residue. Recombinant protein corresponding to the cytoplasmic domain of the human CSF-1R was purchased from Invitrogen Corporation, Carlsbad, Calif. U.S.A. (#PV3249). For each assay, test compounds were serially diluted, starting at 25 μM with 3 fold dilutions, in DMSO in 384 well plates then mixed with an appropriate kinase reaction buffer consisting of 50 mM Hepes, 5 mM MgCl2, 10 mM MnCl2, 0.1% BSA, pH 7.5, 1.0 mM dithiothreitol, 0.01% Tween 80 plus 1 μM ATP. Kinase protein and an appropriate biotinylated peptide substrate at 50 nM were added to give a final volume of 20 μL, reactions were incubated for 2 hours at room temperature and stopped by the addition of 10 μL of 45 mM EDTA, 50 mM Hepes pH 7.5. Added to the stopped reaction mix was 30 μL of PT66 Alphascreen beads (Perkin Elmer, Boston, Mass., U.S.A.). The reaction was incubated overnight and read on the Envision (Perkin Elmer). Phosphorylated peptide product was measured with the AlphaScreen system (Perkin Elmer) using acceptor beads coated with anti-phosphotyrosine antibody PT66 and donor beads coated with streptavidin that emit a fluorescent signal at the 520-620 nm emission wave length if in close proximity. The concentration of each compound for 50% inhibition (IC50) was calculated by non-linear regression using XL Fit data analysis software.
CSF-1R kinase was assayed in 50 mM Hepes pH 7.0, 5 mM MgCl2, 10 mM MnCl2, 1 mM DTT, 1 mg/mL BSA, 1.0 μM ATP, and 0.05 μM biotin-GGGGRPRAATF-NH2 (SEQ ID NO:1) peptide substrate. CSF-1R kinase was added at final concentration of 4 nM.
(In general: In Alpha technology, singlet oxygen from a donor bead excites a nearby acceptor bead.)

For another assay, the target named is T2, cKIT (Homo sapiens, UniProt P10721).
T2 construct: The kinase domain of cKIT was assayed in 50 mM Hepes; purchased Upstate 14-559
T2 sequence (P10721 589-937 limits assumed): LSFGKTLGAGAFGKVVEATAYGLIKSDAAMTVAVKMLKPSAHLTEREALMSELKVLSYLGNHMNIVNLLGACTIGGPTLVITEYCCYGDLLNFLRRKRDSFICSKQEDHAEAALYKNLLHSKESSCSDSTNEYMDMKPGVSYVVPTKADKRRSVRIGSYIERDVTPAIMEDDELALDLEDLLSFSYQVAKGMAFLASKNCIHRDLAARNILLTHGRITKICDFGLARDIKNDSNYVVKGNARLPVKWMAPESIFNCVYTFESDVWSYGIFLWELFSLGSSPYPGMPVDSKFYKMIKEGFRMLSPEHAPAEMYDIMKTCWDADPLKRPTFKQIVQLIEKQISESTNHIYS
Put plainly: cKIT kinase in vitro biochemical assay (alphascreen). To be noted: tested at about 1 μM; read-out: CKIT percent inhibition. The procedure:
(§1) The IC50 values for the inhibition of RTKs were determined in the alphascreen format measuring the inhibition by compound of phosphate transfer to a substrate by the respective enzyme. Briefly, the respective RTK domain purchased as human recombinant protein (cKIT Upstate #14-559, PDGFRb Invitrogen #P3082) were incubated with serial dilutions of compound in the presence of substrate and ATP concentrations within 3 times the Km of the enzyme.
(§2) The kinase domain of cKIT was assayed in 50 mM Hepes, pH=7.5, 5 mM MgCl2, 10 mM MnCl2, 1 mM DTT, 0.1% BSA with 0.06 uM biotinylated peptide substrate (GGLFDDPSYVNVQNL-NH2) and 15 uM ATP (ATP KM apparent=15 uM). The kinase domain of PDGFRβ was assayed in 50 mM Hepes, pH=7.5, 20 mM MgCl2, 1 mM DTT, 0.1% BSA with 0.1 uM biotinylated peptide substrate (GGLFDDPSYVNVQNL-NH2) and 10 uM ATP (ATP KM apparent=25 uM). Reactions were incubated at room temperature for 3 to 4 hr and stopped with buffer (20 mM EDTA, 0.01% Tween-20 for both PDGFRb and cKIT). Alphascreen PY20 beads were added to the stopped cKIT reactions and PY20 Ab/Protein A Alphascreen beads were added to the PDGFRβ stopped reactions. Both reactions were incubated overnight and read on the Alphascreen reader. The concentration of compound for 50% inhibition (IC50) was calculated employing non-linear regression using XL-Fit data analysis software. As a control compound, staurosporine is run in every assay and a Z′>0.5 is required to validate results.

Another assay has as its target T3, PDGFRb (Homo sapiens, UniProt P09619).
T3 construct: The kinase domain of PDGFRβ was assayed in 50 mM Hepes; purchased Invitrogen P3082
Kind of assay: PDGFRb kinase in vitro biochemical assay (alphascreen). To be noted: tested at about 1 μM; read-out: PDGF RK BETA percent inhibition. On the procedure:
as §1, §2

For assay [2], the system named is MNFS60 (murine AML cells). Put plainly: Cell viability assay in MCSF dependent MNFS60 cells (Cell Titer Glo). The class given is cell-based. To be noted: Mus musculus; tested at about 1 μM; MCSF 10 ng/mL, 72 hrs; read-out: CPEC50 MNFS60MCSF percent inhibition. The procedure: Cell viability was assessed by Cell Titer Glo, Promega. MNFS60 (murine AML cells) were seeded in TC treated 96-well plates at a density of 5,000 cells per well in RPMI-1640, 10% FBS, and 1% Penicillin Streptomycin prior to addition of compound. Test compounds were serially diluted (3 fold) in DMSO to 500× the final concentration. For each concentration of test compound, 2 μl (500×) aliquots of compound or 100% DMSO (control) were diluted in 500 μl of culture medium that contained 2× final concentration of growth factor MCSF for 2× concentration and then diluted 1× on the cells. Final concentration of MCSF is 10 ng/mL. Cells were incubated for 72 hrs at 37° C., 5% CO2. After the incubation 100 μl Cell Titer Glo is added to each well to determine viable cells. The assay was performed according to the manufacturer's instruction (Promega Corporation, Madison, Wis. USA). Each experimental condition was performed in triplicate. Raw data was imported in Abase and EC50s calculated with XL-fit data analysis software: Relative light units of wells that contained cells without MCSF in the media and as a consequence didn't grow were defined as 100% inhibited.
(In general: Cellular ATP, detected with luciferase, serves as a proxy for viable cell number.)

T3 sequence (P09619 600-962 limits assumed): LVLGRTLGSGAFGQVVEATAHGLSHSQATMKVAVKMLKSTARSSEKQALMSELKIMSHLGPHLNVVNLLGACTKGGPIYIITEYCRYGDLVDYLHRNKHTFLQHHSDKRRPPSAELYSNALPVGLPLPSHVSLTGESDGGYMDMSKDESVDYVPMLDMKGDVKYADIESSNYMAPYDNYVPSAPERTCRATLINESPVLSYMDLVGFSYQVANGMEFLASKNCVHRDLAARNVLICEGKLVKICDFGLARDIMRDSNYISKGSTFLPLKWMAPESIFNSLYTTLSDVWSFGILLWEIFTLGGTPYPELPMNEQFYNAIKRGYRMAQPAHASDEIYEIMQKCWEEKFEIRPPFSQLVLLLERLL

On to `Clc1ccncc1Oc1ccc2nc(NCC3CCCCC3)sc2c1` [Compound 1, 6-(4-chloropyridin-3-yloxy)-N-(cyclohexylmethyl)benzo[d]thiazol-2-amine], for which the inhibition at 1 µM was 100% in assay [1], 66% at cKIT, 34% at PDGFRb and 22% in assay [2].
For `O[C@@H]1CCCC[C@H]1Nc1nc2ccc(Oc3cnccc3Cl)cc2s1` [Compound 7, (1R,2R)-2-(6-(4-chloropyridin-3-yloxy)benzo[d]thiazol-2-ylamino) cyclohexanol], in that order: 100%, 25%, 11% and 42%.
The corresponding values for `Nc1cc(Oc2ccc3nc(NCC4CCCCC4)sc3c2)ncn1` [Compound 8, 6-(6-aminopyrimidin-4-yloxy)-N-(cyclohexylmethyl) benzo[d]thiazol-2-amine] are 100%, 75%, 46% and 30%.
On to `N#Cc1ccc(Oc2ccc3nc(N[C@@H]4CCCC[C@H]4O)sc3c2)cn1` [Compound 88, 5-(2-((1R,2R)-2-hydroxycyclohexylamino)benzo[d]thiazol-6-yloxy)picolinonitrile], for which the inhibition at 1 µM was found to be 32% in assay [1], 15% at cKIT and 0% at PDGFRb.
For `Nc1ccc(Oc2ccc3nc(NCC4CCCCC4)sc3c2)nn1` [Compound 89, 6-(6-aminopyridazin-3-yloxy)-N-(cyclohexylmethyl)benzo[d]thiazol-2-amine], the inhibition at 1 µM was determined as 75% in assay [1], 46% on cKIT and 9% at PDGFRb.
For the molecule `Nc1ccc(Oc2ccc3nc(N[C@@H]4CCCC[C@H]4O)sc3c2)nn1` [Compound 90, (1R,2R)-2-(6-(6-aminopyridazin-3-yloxy)benzo[d]thiazol-2-ylamino)cyclohexanol], the inhibition at 1 µM in assay [1] was determined as 28%; on cKIT it was 33%; on PDGFRb, 87%.
Consider `Cn1nccc1-c1cncc(Oc2ccc3nc(N[C@@H]4CCCC[C@H]4O)sc3c2)n1` [Compound 91, (1R,2R)-2-(6-(6-(1-methyl-1H-pyrazol-5-yl)pyrazin-2-yloxy)benzo[d]thiazol-2-ylamino) cyclohexanol], for which the inhibition at 1 µM was determined as 95% in assay [1], 21% at cKIT and 14% on PDGFRb.
The corresponding values for `O[C@@H]1CCCC[C@H]1Nc1nc2ccc(Oc3cnc(Cl)c(Br)c3)cc2s1` [Compound 99, (1R,2R)-2-(6-(5-bromo-6-chloropyridin-3-yloxy)benzo[d]thiazol-2-ylamino)cyclohexanol] are 83%, 27% and 21%.
For `C[C@H](Nc1nc2ccc(Oc3ccc(N)nc3)cc2s1)C1CCCCC1` [Compound 100, (S)-6-(6-aminopyridin-3-yloxy)-N-(1-cyclohexylethyl)benzo[d]thiazol-2-amine], in that order: 100%, 90% and 31%.
The corresponding values for `Cn1cc(-c2cc(Oc3ccc4nc(N[C@@H]5CCCC[C@H]5O)sc4c3)cnc2Cl)cn1` [Compound 102, (1R,2R)-2-(6-(6-chloro-5-(1-methyl-1H-pyrazol-4-yl)pyridin-3-yloxy)benzo[d]thiazol-2-ylamino)cyclohexanol] are 86%, 11% and 7%.
Consider `Nc1ccc(-c2cc(Oc3ccc4nc(N[C@@H]5CCCC[C@H]5O)sc4c3)cnc2Cl)cn1` [Compound 104, (1R,2R)-2-(6-(6′-amino-2-chloro-3,3′-bipyridin-5-yloxy)benzo[d]thiazol-2-ylamino)cyclohexanol], for which the inhibition at 1 µM was found to be 86% in assay [1], 15% at cKIT and 15% at PDGFRb.
For `O[C@@H]1CCCC[C@H]1Nc1nc2ccc(Oc3cnc(Cl)c(-c4cccnc4)c3)cc2s1` [Compound 105, (1R,2R)-2-(6-(2-chloro-3,3′-bipyridin-5-yloxy)benzo[d]thiazol-2-ylamino) cyclohexanol], the values for the inhibition at 1 µM (in assay [1]; on cKIT; at PDGFRb) were 43%, 9% and 9%, respectively.
Regarding `Cn1cc(-c2cc(Oc3ccc4nc(N[C@@H]5CCCC[C@H]5O)sc4c3)cnc2-c2cnn(C)c2)cn1` [Compound 106, (1R,2R)-2-(6-(5,6-bis(1-methyl-1H-pyrazol-4-yl)pyridin-3-yloxy)benzo[d]thiazol-2-ylamino) cyclohexanol], the inhibition at 1 µM in assay [1] amounted to 81%; on cKIT it was 13%; at PDGFRb, 18%.
Consider `Nc1ccc(-c2cc(Oc3ccc4nc(N[C@@H]5CCCC[C@H]5O)sc4c3)cnc2-c2ccc(N)nc2)cn1` [Compound 108, (1R,2R)-2-(6-(5,6-bis(6-amino-pyridin-3-yl)pyridin-3-yloxy)benzo[d]thiazol-2-ylamino)cyclohexanol], for which the inhibition at 1 µM was 93% in assay [1], 10% at cKIT and 23% on PDGFRb.
In the case of `O[C@@H]1CCCC[C@H]1Nc1nc2ccc(Oc3cnc(-c4cccnc4)c(-c4cccnc4)c3)cc2s1` [Compound 109, (1R,2R)-2-(6-(5,6-bis(pyridin-3-yl)pyridin-3-yloxy)benzo[d]thiazol-2-ylamino)cyclohexanol], the results for the inhibition at 1 µM (in assay [1]; at cKIT; at PDGFRb) were 48%, 11% and 16%, respectively.

One may read the inhibition as the relative decrease from the control value, in per cent.

(Values after US8293769B2, “CSF-1R inhibitors, compositions, and methods of use” (Novartis AG, priority 2008, dated 2012).)
